{"source": "patent EP3495372B1", "about": "(priority 2017, dated 2019)", "key": {"[1]": {"system": "cultured human blood cells", "assay": "Nucleic acid oxidation, 8-hydroxy-2'-deoxyguanosine assay", "format": "cell-based", "description": "(§1) All volunteers have signed informed consent.\nNucleic acid oxidation: 8-hydroxy-2'-deoxyguanosine assay kits (Cayman Chemical®) was used for determining 8- OH-dG levels in the cultures. It is a competitive assay that can be used for the quantification of 8-OHdG in homogenates and recognizes both free 8-OHdG and DNA-incorporated 8-OH-dG. This assay depends on the competition between 8-OH-dG and 8-OH-dGacetylcholinesterase (AChE) conjugate for a limited amount of 8-OH-dG monoclonal antibody (Abdel-Wahab BA, Metwally ME. Ginkgo biloba enhances the anticonvulsant and neuroprotective effects of sodium valproate against kainic acid-induced seizures in mice. J Pharmacol Toxicol. 2011; 6:679-690). All procedures were carried out in accordance with the provider's manual.\nThe levels of 8-OH-dG, a sensitive marker of oxidative DNA damage, were quantified about mitomycin (MMC) treatment. […] On the contrary, 8-OH-dG levels were not increased in the blood cells that were treated with BLA, MEM, and LA concentrations."}, "[2]": {"system": "differentiated SH-SY5Y human neuroblastoma cells", "assay": "MTT assay, neuroprotective effects against Aβ1-42 cytotoxicity", "format": "cell-based", "details": "24 h, read-out: increase in the cell viability (MTT assay)", "procedure": "Cell cultures and differentiation: SH-SY5Y cell line were growth in DMEM:F12 (1:1) media including 10% FBS and 1% penicillin/streptomycin at 37 °C and 5% CO2 until cells reach confluence. Then, cells harvested via using trypsin/EDTA solution and transferred to 48 well plates. For differentiation, media were changed to supplemented media with 10 µg/mL retinoic acid and incubated for 5 days. Finally, media were changed into serum free media supplementing with both 10 µM retinoic acid and 25 ng/mL BDNF. Differentiated cells were determined under invert microscope and the cells were used within 10 days (Encinas M, Iglesias M, Liu Y, Wang H, Muhaisen A, Ceña V, Gallego C, Comella JX. Sequential treatment of SH-SY5Y cells with retinoic acid and brain-derived neurotrophic factor gives rise to fully differentiated, neurotrophic factor-dependent, human neuron-like cells. J. Neurochem. 2002; 75:991-1003 e Cheung YT, Lau WKW, Yu MS, Lai CSW, Yeung SC, So KF, Chang RCC. Effects of all-trans-retinoic acid on human SH-SY5Y neuroblastoma as in vitro model in neurotoxicity research. Neurotoxicol. 2009; 30:127-135).\n(§2) Control cells (n = 6) were cultured under normal conditions. 1% Triton X, ascorbic acid (10 µM) and hydrogen peroxide (H2O2, 25 µM) were used as positive controls for cell viability, TAC and TOS analysis, respectively.\nThe cultures without BLA, MEM, or LA were studied as negative control group. 1% Triton-X was added to the culture media to provide negative control group. MTT reduction and LDH release observed after 24 h of Aβ1-42-exposure at 20 µM."}, "[3]": {"system": "differentiated SH-SY5Y human neuroblastoma cells", "assay": "LDH assay, neuroprotective effects against Aβ1-42 cytotoxicity", "format": "cell-based", "details": "with 20 µM Aβ1-42, 24 h", "procedure": "Cell cultures and differentiation: SH-SY5Y cell line were growth in DMEM:F12 (1:1) media including 10% FBS and 1% penicillin/streptomycin at 37 °C and 5% CO2 until cells reach confluence. Then, cells harvested via using trypsin/EDTA solution and transferred to 48 well plates. For differentiation, media were changed to supplemented media with 10 µg/mL retinoic acid and incubated for 5 days. Finally, media were changed into serum free media supplementing with both 10 µM retinoic acid and 25 ng/mL BDNF.\n(§3) Cytotechnol. 2015; 67:299-309.\nas §2\nThe cultures without BLA, MEM, or LA were studied as negative control group. 1% Triton-X was added to the culture media to provide negative control group."}, "[4]": {"system": "differentiated SH-SY5Y cells", "assay": "TAC and TOS analysis in cellular model of Alzheimer's disease", "format": "cell-based, human", "details": "co-treatment with Aβ1-42", "procedure": "TAC and TOS analysis: the automated TAC and TOS assays were carried out by commercially available kits (Rel Assay^(R) Diagnostics, Gaziantep, Turkey) on samples from the cultures.\nas §2\nFigure 5 and 6 show the effects of BLA and MEM treatments on TAC and TOS levels in cellular model of Alzheimer's disease, respectively."}, "[5]": {"system": "cultured human lymphocytes", "assay": "SCE assay (genotoxicity)", "format": "cell-based", "procedure": "as §1\nSCE assay: to provide successive visualization of SCEs, 5-bromo-2-deoxyuridine was added at culture cells. Exactly 70 h and 30 min after beginning of the incubations, demecolcine ([…]) was added to the cultures. After hypotonic treatment (0.075 M KCl), followed by three repetitive cycles of fixation in methanol/acetic acid solution (3:1, v/v), centrifugation and re-suspension, the cell suspension was dropped onto chilled, grease-free microscopic slides, air-dried, aged for three days, and then differentially stained for the inspection of the SCE rate according to the fluorescence plus Giemsa (FPG) procedure. For each treatment condition, well-spread twenty-five second division metaphases containing 42-46 chromosomes per cell were scored and the values obtained were calculated as SCEs per cell.\nThe frequencies of sister chromatid exchanges (SCEs) with increasing BLA concentrations were investigated in cultured human lymphocytes."}, "human neuron-like cells": {"system": "human neuron-like cells", "assay": "Apoptosis-Necrosis assay (Annexin V-FITC/PI flow cytometry)", "format": "cell-based", "details": "concentration not given", "procedure": "Apoptosis-Necrosis assay: the frequencies of viable, apoptotic and necrotic cells were detected with the Annexin V-FITC apoptosis detection Kit I (BD Pharmingen, USA). Briefly, 5 x 10^4 cells were collected by centrifugation and cells resuspended in 500 µL of 1X binding buffer. Then, 5 µL of Annexin V-FITC and 5 µl of propidium iodide (PI 50 µg/ml) were added to the cultures and incubated 5 min in the dark. After that, cells fixed with 4% paraformaldehyde in phosphate buffered saline at 4 °C for 30 min. Cells from each well were stained according to the manufacturer's instructions and analyzed using a flow cytometer (CyFlow Cube 6, Partec, Germany). A computer system was used for data acquisition and analysis. Four different populations of cells are detected with the Annexin V-FITC kit: viable cells that are annexin negative and PI negative and express no fluorescence, early apoptotic cells that are annexin positive and PI negative and that express green fluorescence, late apoptotic/necrotic cells that are annexin positive and PI positive and that express green and orange fluorescence, necrotic cells that are annexin negative and PI positive and that express orange fluorescence (Majstorovic I, Vucevic D, Pavlovic B, Vasilijic S, Colic M. An anti-DEC-205 monoclonal antibody stimulates binding of thymocytes to rat thymic dendritic cells and promotes apoptosis of thymocytes. Cent Eur J Immunol. 2014; 39:411-418) .\nBLA was considered as more able to protect the human neuron-like cells from Aβ1-42-induced necrosis and late apoptosis than LA or MEM."}, "[6]": {"biological_target": "T1, acetylcholinesterase (AChE) (Homo sapiens, UniProt P22303)", "T1 construct": "endogenous in cells", "T1 sequence (P22303 32-614)": "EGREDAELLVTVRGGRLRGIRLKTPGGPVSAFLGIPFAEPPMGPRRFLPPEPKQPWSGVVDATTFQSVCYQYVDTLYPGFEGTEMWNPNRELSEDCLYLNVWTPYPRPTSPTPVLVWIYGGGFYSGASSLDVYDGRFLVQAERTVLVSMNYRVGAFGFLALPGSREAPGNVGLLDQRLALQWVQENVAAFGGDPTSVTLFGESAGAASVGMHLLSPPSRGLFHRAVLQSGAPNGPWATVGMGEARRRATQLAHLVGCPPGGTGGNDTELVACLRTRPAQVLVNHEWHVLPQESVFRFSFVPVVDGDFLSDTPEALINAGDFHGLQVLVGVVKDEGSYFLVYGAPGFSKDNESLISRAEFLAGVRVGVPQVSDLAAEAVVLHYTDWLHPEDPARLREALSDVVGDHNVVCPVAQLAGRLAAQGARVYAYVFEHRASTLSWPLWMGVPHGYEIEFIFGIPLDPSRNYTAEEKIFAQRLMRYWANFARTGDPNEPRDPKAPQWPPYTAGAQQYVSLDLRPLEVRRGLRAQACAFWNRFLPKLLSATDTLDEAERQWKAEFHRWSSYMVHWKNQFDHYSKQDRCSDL", "assay": "AChE activity in cellular model of Alzheimer's disease", "format": "cell-based", "details": "with 20 µM Aβ1-42, 24 h", "procedure": "Determination of AChE activity: the activity of AChE within the cellular Alzheimer Disease's model was measured by the Acetylcholinesterase Assay Kit (Colorimetric) from Abcam^(R) (Cambridge, MA, USA) according to the manufacturer's recommended protocol.\nAChE activity was evaluated in differentiated SH-SY5Y cells treated with BLA, LA, MEM (25 and 50 µM) or media alone for 24 h."}, "[7]": {"system": "SHSY-5Y human neuroblastoma cell line", "assay": "Antitumor activity, MTT and LDH assays", "format": "cell-based", "details": "dose-dependent", "procedure": "as §3\nAntitumor activity of BLA and MEM was tested on SHSY-5Y human neuroblastoma cell line using MTT and LDH assays. Cells were grown to near-confluency before treatment. Growth of the cell line was inhibited by both drug application in a dose-dependent manner."}, "[8]": {"system": "differentiated SH-SY5Y cells", "assay": "Apoptosis detection by Hoechst 33258 staining", "format": "cell-based, human", "details": "25 and 50 µM co-treatment, 20 µM Aβ1-42, 24 h", "procedure": "Apoptosis detection by Hoechst 33258 staining: Hoechst 33258 staining was used to detect apoptotic nuclei. […] Then, cells fixed with 4% paraformaldehyde in phosphate buffered saline at 4 °C for 30 min. After washing cells with PBS, the nuclear DNAs were incubated with […] Hoechst 33258 fluorescent dye for 5 min at room temperature. Cells were observed and photographed under a fluorescence microscopy (Leica® DM IL LED)."}, "[9]": {"details": "cited from earlier work"}}}
{"smiles": "CC12CC3CC(C)(C1)CC(N)(C3)C2", "note": "[MEM, memantine]", "values": [{"measurement": "8-OH-dG levels", "setting": "[1]", "result": "not increased"}, {"measurement": "viability at 25 µM", "setting": "[2]", "result": 17.3, "unit": "%"}, {"measurement": "viability at 50 µM", "setting": "[2]", "result": 19.4, "unit": "%"}, {"measurement": "viability at 100 µM", "setting": "[2]", "result": 17.1, "unit": "%"}, {"measurement": "increase in the cell viability (inhibited LDH release)", "setting": "[3]; 25 µM", "result": 56.81, "unit": "%"}, {"measurement": "increase in the cell viability (inhibited LDH release)", "setting": "[3]; 50 µM", "result": 59.15, "unit": "%"}, {"measurement": "increase in the cell viability (inhibited LDH release)", "setting": "[3]; 100 µM", "result": 57.28, "unit": "%"}, {"measurement": "Aβ1-42-induced decreases of TAC and increases of TOS levels", "setting": "[4]", "result": "modulated"}, {"measurement": "frequencies of sister chromatid exchanges (SCEs)", "setting": "[5]", "result": "not higher than the control group"}, {"measurement": "decreased the necrotic cell percentage by Aβ1-42", "setting": "human neuron-like cells", "result": 65.97, "unit": "%"}, {"measurement": "reduced Aβ-induced AChE activity", "setting": "[6]; 25 µM", "result": 14.57, "unit": "%"}, {"measurement": "reduced Aβ-induced AChE activity", "setting": "[6]; 50 µM", "result": 19.47, "unit": "%"}, {"measurement": "antitumor effects (growth inhibition)", "setting": "[7]", "result": "moderate antitumor effects"}, {"measurement": "nuclear integrity and apoptosis by Aβ1-42 (Hoechst 33258)", "setting": "[8]", "result": "protected nuclear integrity and inhibited apoptosis"}]}
{"smiles": "CO[C@@]12[C@H](COC(N)=O)C3=C(C(=O)C(C)=C(N)C3=O)N1C[C@@H]1N[C@@H]12", "note": "[MMC, mitomycin]", "values": [{"measurement": "8-OH-dG concentrations", "setting": "[1]; 10^-7 M, 24 h, positive control", "result": "significantly increased"}]}
{"smiles": "N[C@@H](Cc1ccc(B(O)O)cc1)C(=O)O", "note": "[p-borophenyalanine]", "values": [{"measurement": "safe for humans at doses up to", "setting": "[9]", "result": "up to 900 mg/kg"}]}
